{"source": "patent US5142046A", "about": "“Optically active pyridobenzoxazine derivatives and intermediates thereof” (Daiichi Pharmaceutical Co., Ltd., priority 1985, dated 1992)", "key": {"[1]": {"test_system": "S. aureaus, Smith", "experiment": "Minimum Inhibitory Concentration (MIC), standard method of The Japan Society of Chemotherapy", "conditions": "read-out: Minimum Inhibitory Concentration (MIC)", "excerpt": "(§1) The test method was in accordance with the standard method specified by The Japan Society of Chemotherapy."}, "[2]": {"test_system": "Ps. aeruginosa, 32104", "experiment": "Minimum Inhibitory Concentration (MIC), standard method of The Japan Society of Chemotherapy", "conditions": "Pseudomonas aeruginosa, 32104, read-out: Minimum Inhibitory Concentration (MIC)", "excerpt": "as §1"}, "[3]": {"test_system": "Ps. maltophilia, IID1275", "experiment": "Minimum Inhibitory Concentration (MIC), standard method of The Japan Society of Chemotherapy", "conditions": "Stenotrophomonas maltophilia, IID1275, read-out: Minimum Inhibitory Concentration (MIC)", "excerpt": "as §1"}, "[4]": {"test_system": "Ps. aeruginosa, 32121", "experiment": "Minimum Inhibitory Concentration (MIC), standard method of The Japan Society of Chemotherapy", "conditions": "Pseudomonas aeruginosa, 32121, read-out: Minimum Inhibitory Concentration (MIC)", "excerpt": "as §1"}, "[5]": {"experiment": "in vivo", "conditions": "mouse, iv"}, "[6]": {"test_system": "E. coli, NIHJ", "experiment": "Minimum Inhibitory Concentration (MIC), standard method of The Japan Society of Chemotherapy", "conditions": "Escherichia coli, read-out: Minimum Inhibitory Concentration (MIC)", "excerpt": "as §1"}, "[7]": {"test_system": "K. pneumoniae, Type 2", "experiment": "Minimum Inhibitory Concentration (MIC), standard method of The Japan Society of Chemotherapy", "conditions": "Klebsiella pneumoniae, TYPE2, read-out: Minimum Inhibitory Concentration (MIC)", "excerpt": "as §1"}, "[8]": {"test_system": "S. aureaus, 209P", "experiment": "Minimum Inhibitory Concentration (MIC), standard method of The Japan Society of Chemotherapy", "conditions": "read-out: Minimum Inhibitory Concentration (MIC)", "excerpt": "as §1"}, "[9]": {"test_system": "Ser. marcescens, 10100", "experiment": "Minimum Inhibitory Concentration (MIC), standard method of The Japan Society of Chemotherapy", "conditions": "Serratia marcescens, 10100, read-out: Minimum Inhibitory Concentration (MIC)", "excerpt": "as §1"}, "[10]": {"test_system": "male mice", "experiment": "acute intravenous toxicity in male mice", "conditions": "for Day after treatment 1 (number of mice dead) / Day after treatment 2 (number of mice dead) / Day after treatment 3 (number of mice dead) / Mortality: i.v.; for Day after treatment 1 (number of mice dead) / Day after treatment 2 (number of mice dead) / Day after treatment 3 (number of mice dead): 5 male mice; for Day after treatment 1 (number of mice dead): day 1; for Day after treatment 2 (number of mice dead): day 2; for Day after treatment 3 (number of mice dead): day 3; for Mortality: male mice; for acute toxicity (LD50) compared with racemate, in words: mice, intravenous, relative to (±)-compound"}, "[11]": {"test_system": "Str. pyogenes, G-36", "experiment": "Minimum Inhibitory Concentration (MIC), standard method of The Japan Society of Chemotherapy", "conditions": "Streptococcus pyogenes, G36, read-out: Minimum Inhibitory Concentration (MIC)", "excerpt": "as §1"}, "[12]": {"test_system": "various microorganisms", "experiment": "antimicrobial activity compared with racemic Ofloxacin (summary)", "format": "cell-based", "conditions": "relative to (±)-compound"}}}
{"smiles": "CC1COc2c(N3CCN(C)CC3)c(F)cc3c(=O)c(C(=O)O)cn1c23", "note": "(racemic) [Racemic Ofloxacin, (±)-9-fluoro-3-methyl-10-(4-methyl-1-piperazinyl)-7-oxo-2,3-dihydro-7H-pyrido[1,2,3-de][1,4]-benzoxazine-6-carboxylic acid, reference compound]", "values": [{"measurement": "MIC", "setting": "[1]", "value": 0.2, "unit": "µg/mL"}, {"measurement": "MIC", "setting": "[2]", "value": 0.78, "unit": "µg/mL"}, {"measurement": "MIC", "setting": "[3]", "value": 0.78, "unit": "µg/mL"}, {"measurement": "MIC", "setting": "[4]", "value": 0.2, "unit": "µg/mL"}, {"measurement": "LD50", "setting": "[5]", "value": 203, "unit": "mg/kg"}, {"measurement": "MIC", "setting": "[6]", "value": "< 0.1", "unit": "µg/mL"}, {"measurement": "MIC", "setting": "[7]", "value": 0.1, "unit": "µg/mL"}, {"measurement": "MIC", "setting": "[8]", "value": 0.39, "unit": "µg/mL"}, {"measurement": "MIC", "setting": "[9]", "value": 0.1, "unit": "µg/mL"}, {"measurement": "Day after treatment 1 (number of mice dead)", "setting": "[10]; 100 mg/kg", "value": 0}, {"measurement": "Day after treatment 2 (number of mice dead)", "setting": "[10]; 100 mg/kg", "value": 0}, {"measurement": "Day after treatment 3 (number of mice dead)", "setting": "[10]; 100 mg/kg", "value": 0}, {"measurement": "Mortality", "setting": "[10]; 100 mg/kg", "value": "0/5"}, {"measurement": "Day after treatment 1 (number of mice dead)", "setting": "[10]; 200 mg/kg", "value": 2}, {"measurement": "Day after treatment 2 (number of mice dead)", "setting": "[10]; 200 mg/kg", "value": 0}, {"measurement": "Day after treatment 3 (number of mice dead)", "setting": "[10]; 200 mg/kg", "value": 0}, {"measurement": "Mortality", "setting": "[10]; 200 mg/kg", "value": "2/5"}, {"measurement": "Day after treatment 1 (number of mice dead)", "setting": "[10]; 400 mg/kg", "value": 5}, {"measurement": "Day after treatment 2 (number of mice dead)", "setting": "[10]; 400 mg/kg", "value": 0}, {"measurement": "Day after treatment 3 (number of mice dead)", "setting": "[10]; 400 mg/kg", "value": 0}, {"measurement": "Mortality", "setting": "[10]; 400 mg/kg", "value": "5/5"}, {"measurement": "MIC", "setting": "[11]", "value": 1.56, "unit": "µg/mL"}]}
{"smiles": "CCN1CCN(c2c(F)cc3c(=O)c(C(=O)O)cn4c3c2OC[C@@H]4C)CC1", "note": "[Example 17, (S)-(-)-9-Fluoro-3-Methyl-10-(4-Ethyl-1-Piperazinyl)-7-Oxo-2,3-Dihydro-7H-Pyrido[1,2,3-de][1,4]Benzoxazine-6-Carboxylic Acid]", "values": [{"measurement": "MIC", "setting": "[1]", "value": "< 0.1", "unit": "µg/mL"}, {"measurement": "MIC", "setting": "[2]", "value": 0.39, "unit": "µg/mL"}, {"measurement": "MIC", "setting": "[3]", "value": 0.1, "unit": "µg/mL"}, {"measurement": "MIC", "setting": "[4]", "value": 0.1, "unit": "µg/mL"}, {"measurement": "MIC", "setting": "[6]", "value": "< 0.1", "unit": "µg/mL"}, {"measurement": "MIC", "setting": "[7]", "value": "< 0.1", "unit": "µg/mL"}, {"measurement": "MIC", "setting": "[8]", "value": 0.1, "unit": "µg/mL"}, {"measurement": "MIC", "setting": "[9]", "value": "< 0.1", "unit": "µg/mL"}, {"measurement": "MIC", "setting": "[11]", "value": 1.56, "unit": "µg/mL"}]}
{"smiles": "C[C@@H]1COc2c(N3CCN(C)CC3)c(F)cc3c(=O)c(C(=O)O)cn1c23", "note": "[R(+)-Ofloxacin]", "values": [{"measurement": "MIC", "setting": "[1]", "value": 6.25, "unit": "µg/mL"}, {"measurement": "MIC", "setting": "[2]", "value": 12.5, "unit": "µg/mL"}, {"measurement": "MIC", "setting": "[3]", "value": 12.5, "unit": "µg/mL"}, {"measurement": "MIC", "setting": "[4]", "value": 6.25, "unit": "µg/mL"}, {"measurement": "MIC", "setting": "[6]", "value": 0.39, "unit": "µg/mL"}, {"measurement": "MIC", "setting": "[7]", "value": 1.56, "unit": "µg/mL"}, {"measurement": "MIC", "setting": "[8]", "value": 25, "unit": "µg/mL"}, {"measurement": "MIC", "setting": "[9]", "value": 1.56, "unit": "µg/mL"}, {"measurement": "Day after treatment 1 (number of mice dead)", "setting": "[10]; 100 mg/kg", "value": 0}, {"measurement": "Day after treatment 2 (number of mice dead)", "setting": "[10]; 100 mg/kg", "value": 0}, {"measurement": "Day after treatment 3 (number of mice dead)", "setting": "[10]; 100 mg/kg", "value": 0}, {"measurement": "Mortality", "setting": "[10]; 100 mg/kg", "value": "0/5"}, {"measurement": "Day after treatment 1 (number of mice dead)", "setting": "[10]; 200 mg/kg", "value": 3}, {"measurement": "Day after treatment 2 (number of mice dead)", "setting": "[10]; 200 mg/kg", "value": 0}, {"measurement": "Day after treatment 3 (number of mice dead)", "setting": "[10]; 200 mg/kg", "value": 0}, {"measurement": "Mortality", "setting": "[10]; 200 mg/kg", "value": "3/5"}, {"measurement": "Day after treatment 1 (number of mice dead)", "setting": "[10]; 400 mg/kg", "value": 5}, {"measurement": "Day after treatment 2 (number of mice dead)", "setting": "[10]; 400 mg/kg", "value": 0}, {"measurement": "Day after treatment 3 (number of mice dead)", "setting": "[10]; 400 mg/kg", "value": 0}, {"measurement": "Mortality", "setting": "[10]; 400 mg/kg", "value": "5/5"}, {"measurement": "acute toxicity (LD50) compared with racemate, in words", "setting": "[10]", "value": "substantially equal to that of the (±)-compound"}, {"measurement": "MIC", "setting": "[11]", "value": "< 100", "unit": "µg/mL"}]}
{"smiles": "C[C@H]1COc2c(N3CCN(C)CC3)c(F)cc3c(=O)c(C(=O)O)cn1c23", "note": "[S(-)-Ofloxacin, S-(-)-9-Fluoro-3-Methyl-10-(4-Methyl-1-Piperazinyl)-7-oxo-2,3-Dihydro-7H-Pyrido[1,2,3-de][1,4]Benzoxazine-6-Carboxylic Acid]", "values": [{"measurement": "MIC", "setting": "[1]", "value": 0.1, "unit": "µg/mL"}, {"measurement": "MIC", "setting": "[2]", "value": 0.39, "unit": "µg/mL"}, {"measurement": "MIC", "setting": "[3]", "value": 0.39, "unit": "µg/mL"}, {"measurement": "MIC", "setting": "[4]", "value": 0.1, "unit": "µg/mL"}, {"measurement": "MIC", "setting": "[6]", "value": "< 0.1", "unit": "µg/mL"}, {"measurement": "antimicrobial activity, times higher than that of the (±)-compound", "setting": "[12]", "value": "about 2 times"}, {"measurement": "MIC", "setting": "[7]", "value": "< 0.1", "unit": "µg/mL"}, {"measurement": "MIC", "setting": "[8]", "value": 0.2, "unit": "µg/mL"}, {"measurement": "MIC", "setting": "[9]", "value": "< 0.1", "unit": "µg/mL"}, {"measurement": "LD50", "setting": "[10]; i.v. in mice", "value": 244, "unit": "mg/kg"}, {"measurement": "Day after treatment 1 (number of mice dead)", "setting": "[10]; 100 mg/kg", "value": 0}, {"measurement": "Day after treatment 2 (number of mice dead)", "setting": "[10]; 100 mg/kg", "value": 0}, {"measurement": "Day after treatment 3 (number of mice dead)", "setting": "[10]; 100 mg/kg", "value": 0}, {"measurement": "Mortality", "setting": "[10]; 100 mg/kg", "value": "0/5"}, {"measurement": "Day after treatment 1 (number of mice dead)", "setting": "[10]; 200 mg/kg", "value": 0}, {"measurement": "Day after treatment 2 (number of mice dead)", "setting": "[10]; 200 mg/kg", "value": 0}, {"measurement": "Day after treatment 3 (number of mice dead)", "setting": "[10]; 200 mg/kg", "value": 0}, {"measurement": "Mortality", "setting": "[10]; 200 mg/kg", "value": "0/5"}, {"measurement": "Day after treatment 1 (number of mice dead)", "setting": "[10]; 400 mg/kg", "value": 5}, {"measurement": "Day after treatment 2 (number of mice dead)", "setting": "[10]; 400 mg/kg", "value": 0}, {"measurement": "Day after treatment 3 (number of mice dead)", "setting": "[10]; 400 mg/kg", "value": 0}, {"measurement": "Mortality", "setting": "[10]; 400 mg/kg", "value": "5/5"}, {"measurement": "acute toxicity (LD50) compared with racemate, in words", "setting": "[10]", "value": "weaker"}, {"measurement": "MIC", "setting": "[11]", "value": 0.78, "unit": "µg/mL"}]}
